Earlier results as cited in US11273137B2, “Methods and compositions to prevent and treat disorders associated with mutations in the ODC1 gene” (Board of Trustees of Michigan State University, priority 2018, dated 2022).

What was measured:
[1] = tested on: transgenic mice overexpressing c-terminally deleted ODC (p.P427X)
[2] = transgenic mice with c-terminally deleted ODC

## NCCC[C@](N)(C(=O)O)C(F)F [DFMO, alpha-difluoromethylornithine]
[1]; heterozygous transgenic mice with c-terminal 34 aa ODC deletion targeted to the skin
  phenotypic changes (skin and hair follicle abnormalities, alopecia): reversible
[1]; mice with complete hair loss
  hair growth: partially restored hair growth
[1]; [2]
  hair loss: prevented hair loss
  reappearance of normal follicles: activated reappearance of normal follicles
other
  water solubility: water soluble
